Test results from patent US20100022401A1, “Avidin-like proteins from symbiotic bacteria” (LICENTIA OY, priority 2004, published 2010).
Where two headings read alike, the source gives them in different places. Marks after values point to notes of the source that are not given here.

Legend:
[1] = Fluorescent biotin conjugate dissociation assay; assay type: binding
Experimental: FIG. 2 Biotin dissociation analysis. (A) The [3H]biotin dissociation rate constant was measured at different temperatures. The values for streptavidin are from Klumb et al. (Klumb et al., 1998). The scale of the Y axis is logarithmic. (B) Release of fluorescent biotin conjugate from avidins was studied as a function of time in the presence of excess D-biotin at 50° C.
Ligand binding properties were studied both by [3H]biotin assay and fluorescent biotin conjugate assay. The dissociation rate constant of [3H]biotin (Amersham) from the bradavidins and avidin was measured at various temperatures as described in detail previously (Klumb et al., 1998). According to the results, (Table I, FIG. 2) the faster dissociation rate measured from bradavidin indicates weaker affinity toward the radiobiotin than those of avidin and streptavidin. The dissociation rate of a fluorescent biotin conjugate (ArcDia BF560™-biotin) was measured as previously described (Hytönen et al., 2004a) at 50° C.
The apparent molecular mass is indicated and followed by the theoretical mass in brackets. Transition temperature (Tr) indicates the temperature in which half of the protein is tetrameric and half monomeric in the absence (first value) and presence (second value) of biotin. In addition to the measured dissociation rate constant (kdiss), the release percentage of the fluorescent biotin conjugate in one hour in the presence of excess free biotin is indicated. Calculated isoelectrical point (pI) and the number of cysteine residues per monomer are also indicated.

[2] = radio-biotin; streptavidin values from Klumb et al., 1998; cited from earlier work
[3] = values from Bayer et al., 1996, cited from earlier work

Substance: Streptavidin: bacterial analog for avidin from S. avidinii (SEQ ID NO:7) [reference compound]
- Fluorescent biotin kdiss ([1]; ArcDia BF560-biotin, 50° C.): 7.2e-06 s⁻¹
- Fluorescent biotin conjugate dissociation (in words) ([1]; fluorescent biotin conjugate as ligand): very slow and small release
- Release 1 h of fluorescent biotin conjugate ([1]; one hour, presence of excess free biotin, 50° C.): 5.1%
- [3H]biotin dissociation rate (in words) [2]: fell between these two
- Heat treatment SDS-PAGE Tr (transition temperature) ([3]; absence of biotin): 72^a ° C.
- Heat treatment SDS-PAGE Tr (transition temperature) ([3]; presence of biotin): 100^a ° C.
